Experimental findings from BindingDB's records for patent US20240010684 (Bayer Aktiengesellschaft, 2024) are described below.

Where a SMILES comes first, the peptide text is derived from it. Bridges are numbered along the chain shown (N, C = ends). [ ]: non-standard residue; d: D form. Oic = O=C(O)[C@@H]1C[C@@H]2CCCC[C@@H]2N1; Pen = CC(C)(S)[C@H](N)C(=O)O

The target in assay [1] is T1, Mannan-binding lectin serine protease 1 (Homo sapiens, UniProt P48740).
T1 sequence (P48740 whole entry): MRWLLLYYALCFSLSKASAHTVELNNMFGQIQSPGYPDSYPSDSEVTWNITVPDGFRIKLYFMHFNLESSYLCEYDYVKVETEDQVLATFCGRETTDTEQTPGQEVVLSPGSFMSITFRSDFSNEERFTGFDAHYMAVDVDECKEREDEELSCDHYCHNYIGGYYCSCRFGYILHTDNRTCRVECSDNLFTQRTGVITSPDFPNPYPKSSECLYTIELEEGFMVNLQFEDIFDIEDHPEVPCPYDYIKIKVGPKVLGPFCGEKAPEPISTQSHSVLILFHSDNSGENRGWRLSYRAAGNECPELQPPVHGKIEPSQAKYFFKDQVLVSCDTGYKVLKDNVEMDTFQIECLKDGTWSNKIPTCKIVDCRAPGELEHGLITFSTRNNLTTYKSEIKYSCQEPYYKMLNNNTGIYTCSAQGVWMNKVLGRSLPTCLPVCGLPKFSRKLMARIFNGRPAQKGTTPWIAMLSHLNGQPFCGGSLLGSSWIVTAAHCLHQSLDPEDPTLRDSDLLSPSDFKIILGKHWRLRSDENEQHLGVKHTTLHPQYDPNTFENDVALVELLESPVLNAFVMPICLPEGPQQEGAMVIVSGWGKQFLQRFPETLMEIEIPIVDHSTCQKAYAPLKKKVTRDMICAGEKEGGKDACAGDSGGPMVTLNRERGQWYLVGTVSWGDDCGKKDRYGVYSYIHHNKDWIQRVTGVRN
Put plainly: Biochemical Human MASP1 Assay. The procedure: Recombinant human MASP1 enzyme produced in the HEK 293 cells was diluted in the reaction buffer (50 mM HEPES pH 8,0; 100 mM NaCl; 0,01% CHAPS; 0.5 mM Gluthathione) to the concentration of 20 nM and 25 μl was transferred into each single well of 384-well white microtiter plate (Greiner Bio One 781075). 1 μl of the inhibitor compound solution (dissolved in DMSO, at the corresponding concentration) or pure DMSO as a control was added to the same wells. The enzymatic reaction was initiated by addition of 25 μl of 20 μM solution of the FRET substrate ABZ-[…]-Lys (Dnp)-NH2; (ABZ-2-aminobenzoyl; DNP 2,4-dinitrophenyl; custom synthesis by Jerini Peptide Technologies, Berlin) in the reaction buffer. The microtiter plate was incubated for 60-120 min at the temperature of 32 C. The increase of fluorescence intensity was measured in appropriate fluorescence plate reader (e.g. TECAN Ultra) using excitation wavelength of 320 nm and emission wavelength of 420 nm. IC50 values were calculated from percentage of inhibition of human MASP1 activity as a function of test compound concentration.

In assay [2] the target is Mannan-binding lectin serine protease 2 (Homo sapiens, UniProt O00187). Put plainly: Biochemical Human MASP2 Assay. The protocol:
Recombinant human MASP2 enzyme produced in the HEK 293 cells was diluted in the reaction buffer (50 mM HEPES pH 8,0; 100 mM NaCl; 0,01% CHAPS; 0.5 mM Gluthathione) to the concentration of 20 nM and 25 μl was transferred into each single well of 384-well white microtiter plate (Greiner Bio One 781075). 1 μl of the inhibitor compound solution (dissolved in DMSO, at the corresponding concentration) or pure DMSO as a control was added to the same wells. The enzymatic reaction was initiated by addition of 25 μl of 60 μM solution of the FRET substrate DABCYL-[…]-Glu(EDANS) NH2; (Dabcyl-4-((4-(dimethylamino)phenyl)azo)benzoic acid; Edans-5-[(2-Aminoethyl) amino]naphthalene-1-sulfonyl; custom synthesis by Jerini Peptide Technologies, Berlin) in the reaction buffer. The microtiter plate was incubated for 60-120 min at the temperature of 32 C.

In assay [3] the target is T2, Mannan-binding lectin serine protease 1 (Rattus norvegicus, UniProt Q8CHN8).
T2 sequence (Q8CHN8 whole entry): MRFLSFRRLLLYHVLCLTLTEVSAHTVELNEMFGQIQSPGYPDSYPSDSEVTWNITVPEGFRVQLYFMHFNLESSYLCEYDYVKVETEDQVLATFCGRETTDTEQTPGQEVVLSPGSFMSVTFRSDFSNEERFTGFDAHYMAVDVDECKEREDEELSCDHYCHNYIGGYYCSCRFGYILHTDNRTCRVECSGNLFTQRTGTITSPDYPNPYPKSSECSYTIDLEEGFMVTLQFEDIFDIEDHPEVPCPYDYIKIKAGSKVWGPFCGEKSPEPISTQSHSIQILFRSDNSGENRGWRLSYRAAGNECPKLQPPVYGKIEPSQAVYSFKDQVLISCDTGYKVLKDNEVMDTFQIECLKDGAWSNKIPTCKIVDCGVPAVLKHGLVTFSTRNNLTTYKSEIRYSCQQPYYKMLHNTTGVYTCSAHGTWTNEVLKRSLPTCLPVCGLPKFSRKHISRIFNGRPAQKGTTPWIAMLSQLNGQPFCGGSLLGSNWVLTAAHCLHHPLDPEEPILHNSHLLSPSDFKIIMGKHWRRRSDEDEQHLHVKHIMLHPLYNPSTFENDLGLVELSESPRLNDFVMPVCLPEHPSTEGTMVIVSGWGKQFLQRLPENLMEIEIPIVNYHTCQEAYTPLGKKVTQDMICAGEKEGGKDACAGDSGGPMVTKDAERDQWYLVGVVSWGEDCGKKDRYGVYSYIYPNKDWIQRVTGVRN
As to the kind of experiment: Biochemical Rat MASP1 Assay. The procedure: Recombinant […] produced in the HEK 293 cells was diluted in the reaction buffer (50 mM HEPES pH 8,0; 100 mM NaCl; 0,01% CHAPS; 0.5 mM Gluthathione) to the concentration of 4 nM and 25 μl was transferred into each single well of 384-well white microtiter plate (Greiner Bio One 781075). 1 μl of the inhibitor compound solution (dissolved in DMSO, at the corresponding concentration) or pure DMSO as a control was added to the same wells. The enzymatic reaction was initiated by addition of 25 μl of 40 μM solution of the FRET substrate Dabcyl-[…]-Glu(Edans)-NH2; (Dabcyl-4-((4-(dimethylamino)phenyl)azo)benzoic acid; Edans-5-[(2-Aminoethyl) amino]naphthalene-1-sulfonyl; custom synthesis by Jerini Peptide Technologies, Berlin) in the reaction buffer. The microtiter plate was incubated for 60-120 min at the temperature of 32 C. The increase of fluorescence intensity was measured in appropriate fluorescence plate reader (e.g. TECAN Ultra) using excitation wavelength of 340 nm and emission wavelength of 490 nm. IC50 values were calculated from percentage of inhibition of rat […] activity as a function of test compound concentration.

Assay [4] concerns the target Mannan-binding lectin serine protease 2 (Rattus norvegicus, UniProt Q9JJS8). As to the kind of experiment: Biochemical Rat MASP2 Assay. The protocol: 1 μl of the inhibitor compound solution (dissolved in DMSO, at the corresponding concentration) or pure DMSO as a control was added to the same wells. The enzymatic reaction was initiated by addition of 25 μl of 30 μM solution of the FRET substrate Abz-IEGRTSED-(Lys)Dnp-NH2; (ABZ-2-aminobenzoyl; DNP-2,4-dinitrophenyl; custom synthesis by Jerini Peptide Technologies, Berlin) in the reaction buffer. The microtiter plate was incubated for 60-120 min at the temperature of 32 C. The increase of fluorescence intensity was measured in appropriate fluorescence plate reader (e.g. TECAN Ultra) using excitation wavelength of 320 nm and emission wavelength of 420 nm. IC50 values were calculated from percentage of inhibition of rat […] activity as a function of test compound concentration.

Chain of Mannan-binding lectin serine protease 2 (Homo sapiens, UniProt O00187) (O00187 16-444 limits assumed): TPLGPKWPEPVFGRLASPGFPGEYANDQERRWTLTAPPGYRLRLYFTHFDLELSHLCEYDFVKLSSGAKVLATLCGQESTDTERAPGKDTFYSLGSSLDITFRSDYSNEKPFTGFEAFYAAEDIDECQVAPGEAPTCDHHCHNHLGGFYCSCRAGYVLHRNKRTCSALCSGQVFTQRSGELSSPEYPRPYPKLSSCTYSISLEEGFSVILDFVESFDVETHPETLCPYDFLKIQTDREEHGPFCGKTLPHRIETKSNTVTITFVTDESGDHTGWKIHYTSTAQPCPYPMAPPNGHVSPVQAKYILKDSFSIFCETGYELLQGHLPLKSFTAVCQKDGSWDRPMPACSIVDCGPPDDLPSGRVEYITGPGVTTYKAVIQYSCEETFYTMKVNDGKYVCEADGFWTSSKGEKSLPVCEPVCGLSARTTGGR
Chain of Mannan-binding lectin serine protease 2 (Homo sapiens, UniProt O00187) (O00187 445-686 limits assumed): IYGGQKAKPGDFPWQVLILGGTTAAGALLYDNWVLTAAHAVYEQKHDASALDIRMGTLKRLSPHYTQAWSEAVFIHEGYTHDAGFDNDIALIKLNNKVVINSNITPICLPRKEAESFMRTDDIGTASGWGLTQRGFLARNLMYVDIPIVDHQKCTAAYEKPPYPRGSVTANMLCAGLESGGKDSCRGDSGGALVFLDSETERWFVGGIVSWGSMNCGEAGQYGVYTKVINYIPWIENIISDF
Chain of Mannan-binding lectin serine protease 2 (Rattus norvegicus, UniProt Q9JJS8) (Q9JJS8 20-443 limits assumed): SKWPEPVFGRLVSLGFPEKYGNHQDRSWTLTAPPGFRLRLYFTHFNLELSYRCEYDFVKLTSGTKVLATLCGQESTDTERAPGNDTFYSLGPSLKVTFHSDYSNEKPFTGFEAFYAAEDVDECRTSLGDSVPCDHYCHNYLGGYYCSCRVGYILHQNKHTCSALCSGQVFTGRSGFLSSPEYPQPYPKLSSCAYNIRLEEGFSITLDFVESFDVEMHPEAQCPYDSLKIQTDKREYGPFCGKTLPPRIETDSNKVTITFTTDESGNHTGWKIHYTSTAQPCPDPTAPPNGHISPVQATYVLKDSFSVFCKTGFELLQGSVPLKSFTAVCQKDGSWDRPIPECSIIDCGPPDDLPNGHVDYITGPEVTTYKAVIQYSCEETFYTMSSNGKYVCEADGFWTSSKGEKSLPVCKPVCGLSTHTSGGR
Chain of Mannan-binding lectin serine protease 2 (Rattus norvegicus, UniProt Q9JJS8) (Q9JJS8 444-685 limits assumed): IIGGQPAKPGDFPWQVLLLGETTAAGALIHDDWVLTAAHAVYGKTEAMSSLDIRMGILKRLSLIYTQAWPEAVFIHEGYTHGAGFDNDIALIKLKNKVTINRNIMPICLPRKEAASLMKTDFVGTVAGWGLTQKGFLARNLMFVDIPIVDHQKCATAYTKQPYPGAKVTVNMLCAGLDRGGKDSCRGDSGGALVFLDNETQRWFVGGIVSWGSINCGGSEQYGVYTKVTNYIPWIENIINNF

Consider `CC[C@H](C)[C@@H]1NC(=O)CNC(=O)CNC(=O)[C@H](C)NC(=O)[C@H](CC(=O)O)NC(=O)[C@@H]2CCCN2C(=O)[C@H]([C@@H](C)CC)NC(=O)[C@H]2NC(=O)[C@H]([C@@H](C)CC)NC(=O)[C@@H]3C[C@@H]4CCCC[C@@H]4N3C(=O)[C@@H]3CCCN3C(=O)[C@H](CC(C)C)NC(=O)[C@H](CO)NC(=O)[C@H](CCCNC(=N)N)NC(=O)[C@H](CO)NC(=O)[C@H](CSSC2(C)C)NC1=O` [US20240010684, Ex. No 92] (cyclo(AGGICSRSLP[Oic]I[Pen]IPD); disulfide 5-13), for which the IC50 (commonly the concentration that inhibits the measured activity by half) in assay [1] came out at 8.4 nM; in assay [2], 77 nM; in assay [3], 170 nM; in assay [4] it was 41 nM.

In the case of `CC[C@H](C)[C@@H]1NC(=O)CNC(=O)CNC(=O)[C@H](C)NC(=O)[C@@H](CC(=O)O)NC(=O)[C@@H]2CCCN2C(=O)[C@H]([C@@H](C)CC)NC(=O)[C@H]2NC(=O)[C@H]([C@@H](C)CC)NC(=O)[C@@H]3C[C@@H]4CCCC[C@@H]4N3C(=O)[C@@H]3CCCN3C(=O)[C@H](CC(C)C)NC(=O)[C@H](CO)NC(=O)[C@H](CCCNC(=N)N)NC(=O)[C@H](CO)NC(=O)[C@H](CSSC2(C)C)NC1=O` [US20240010684, Ex. No 98] (cyclo(AGGICSRSLP[Oic]I[Pen]IP[dD]); disulfide 5-13), the IC50 in assay [1] was 19 nM; in assay [2], 160 nM; in assay [3], 170 nM.

On to `CC[C@H](C)[C@@H]1NC(=O)[C@@H]2CCCN2C(=O)[C@@H]2CCCN2C(=O)[C@H]([C@@H](C)CC)NC(=O)[C@H](CO)NC(=O)[C@H](CCCCN)NC(=O)[C@H]([C@@H](C)O)NC(=O)[C@@H]2CSSC[C@H](NC1=O)C(=O)N[C@@H](Cc1ccccc1)C(=O)N1CCC[C@H]1C(=O)N[C@@H](CC(=O)O)C(=O)NCC(=O)N[C@@H](CCCNC(=N)N)C(=O)N2` [US20240010684, Ref. No 2], for which the IC50 is above 3000 nM in assay [1], above 3000 nM in assay [2] and 1000 nM in assay [4].
